Results reported in US6537967B1, “Pentamer peptide amide, ALGPGNH2, which inhibits viral infectivity and methods of use thereof” (Tripep AB, priority 2001, dated 2003).
Peptide text beside a SMILES is read from it.

Columns and labels:
Type in all cases: cell-based
[1] = test system: HIV-1 clinical isolate 1; experiment: HIV-1 clinical isolate 1 infectivity assay in PBMC (p24 in culture supernatant); conditions: FIG. 2
Description: (§1) In this example, the methods that were used to analyze the ability of ALGPG-NH2 (SEQ. ID. NO.: 1) to inhibit HIV- l replication are disclosed. HIV-1 SF-2 stock was prepared from HUT78 cells and two clinical isolates were prepared from donor's peripheral blood mononuclear cells (PBMC). The virus infected cells were propagated and maintained in RPMI 1640 medium supplemented with 10% heat inactivated fetal bovine serum (GIBCO Laboratories) with penicillin and streptomycin (100 μg/ml each). PBMCs were purified by Ficoll-Hypaque density gradient centrifugation and stimulated with phytohemagglutinin (KEBO laboratories, Sweden) for three days in RPMI 1640 medium supplemented with 10% heat inactivated fetal bovine serum (GIBCO Laboratories) with penicillin and streptomycin (100 μg/ml each).
(§2) The infectivity assays of the HIV-1 clinical isolates were performed, as above, in PBMC, which were stimulated for three days with 2.5 μg/ml of phytohemagglutinin (DIFCO, New Jersey). Cells were cultured in RPMI 1640 medium supplemented with 10% (v/v) heat-inactivated fetal bovine serum (FBS), penicillin (100 u/ml), and streptomycin (100 u/ml), all available through GIBCO, and Polybrene (2 μg/ml), available through Sigma. […] The production of p24 in the culture supernatent was monitored using a commercially available HIV p24 antigen detection kit (ELISA kit from Abbott Laboratories, North Chicago, U.S.A.).

[2] = test system: HIV-1 clinical isolate 2; experiment: HIV-1 clinical isolate 2 infectivity assay in PBMC (p24 in culture supernatant); conditions: FIG. 2
Description: as §1, §2

[3] = test system: HIV-1 SF-2; experiment: HIV-1 SF-2 infectivity assay in H9 cells (RT activity and p24 in culture supernatant); conditions: 25 TCID50, FIG. 1
Description: as §1
Approximately 10^5 of H9 cells were infected with HIV-1 SF-2, obtained as described above, at 25 TCID50 to test the inhibitory effect of ALGPG-NH2 (SEQ. ID. NO.: 1). The H9 cells were resuspended with or without ALGPG-NH2 (SEQ. ID. NO.: 1) (at approximately 5 μM, 20 μM, and […]) in 1 ml of RPMI 1640 medium supplemented with 10% (v/v) heat-inactivated fetal bovine serum (FBS), penicillin (100 μ/ml), and streptomycin (100 u/ml), all available through GIBCO, and Polybrene (2 μg/ml), available through Sigma. Thereafter, viruses were added at 25 TCID50 in a volume of 20-30 μl. Cells were incubated with virus at 37° C. for 1 hr then pelleted at 170×g for 7 minutes. The cells were then washed three times in RPMI medium with or without peptides at room temperature and pelleted at 170×g for 7 minutes, as above. […]
Culture supernatants were collected and analyzed when the medium was changed at 4, 7, 10, and 14 days post infection. […] The amount of RT was determined with the aid of a regression line of standards. The presence of p24 in the supernatants was determined using a commercially available HIV p24 antigen detection kit (ELISA kit from Abbott Laboratories, North Chicago, U.S.A.).

## CC(C)C[C@H](NC(=O)[C@H](C)N)C(=O)NCC(=O)N1CCC[C@H]1C(=O)NCC(N)=O [ALGPG-NH2] (H-ALGPG-NH2; N-terminus assumed)
[1]; 20 μM
  inhibition of isolate 1: approximately 20%
[1]; 100 μM
  inhibition of isolate 1: almost complete
[2]; 20 μM
  inhibition of isolate 2: approximately 50%
[2]; 100 μM
  inhibition of isolate 2: almost complete
[3]; 5 μM peptide amide
  inhibition of HIV-1 SF-2 infection: approximately 50%
[3]; 20 μM peptide amide
  inhibition of HIV-1 SF-2 infection: almost complete
[3]; 100 μM peptide amide
  inhibition of HIV-1 SF-2 infection: almost complete
